Experiments:
[1] = system: pulmonary colonies of B16 melanoma; assay: Autoradiograms, pulmonary metastasing colonies after i.v. B16 cells; format: in vivo, mouse; conditions: 1 to 7 hours after injection
Method: The autoradiograms are carried out in mice bearing grafted melanomas:
The animals bearing grafted tumors receive the labelled compounds in the form of the hydrochloride in saline solution (3.7 to 5×10^5 Bq/animal) in a caudal vein. At different time intervals after the administration of the compounds (from 15 minutes to 24 hours) the mice are anesthetized with ether and plunged into liquid nitrogen.
30 μm sections, parallel to a sagittal plane, are prepared in a freezing microtome (TS 260, SLEE) according to the protocol described by Ullberg. The sections, dehydrated in the cold, are applied to sensitive films, Ultrofim ^3 H (LKB, 2208-190) or Hyperfilm ^3 H (Amersham, RPN 535).
After the i.v. injection of B16 melanoma cells the appearance of predominantly pulmonary metastasing colonies is noticed.

[2] = system: Dau amelanic human melanoma; assay: Tissue distribution in Swiss nu/nu SSCUP mice bearing Dau; format: in vivo
Method: The study of the tissue distribution of the ^125 I labelled compounds was performed in mice bearing grafted melanomas (cf. autoradiograms above). […] The animals are sacrificed at different time intervals of 1 to 24 hours after the injection. The blood is collected and the principal organs are excised. Aliquots are weighed and the radioactivity of the samples is measured in a […] 1191 counter (analytic tracer). The counting yield for iodine 125 is 60%. The results are expressed: as a percentage of the injected dose bound per g of tissue (% ID/g); in the form of the ratios [formula] This ratio reflects more precisely the selectivity of a molecule for an organ (tables 2, 4, 6, 8, 10 and 12).

[3] = system: male nu/nu SSCUP nude mice bearing heterotransplants (Beu melanoma); assay: LD50 determination, i.v. (Karber and Behrens); conditions: mouse, in vivo, iv
Excerpt: (§1) The determination of the LD50 is made in the mouse after i.v. injection of the molecules according to the methodology described by Karber and Behrens.
(§2) male nu/nu SSCUP nude mice bearing heterotransplants of human melanomas.

[4] = LD50 determination, i.v. (Karber and Behrens); conditions: mouse, in vivo, iv
Excerpt: as §1, §2

[5] = system: SW 948 (adenocarcinoma of the colon); assay: Scintillation imaging (specificity), nu/nu SSCUP nude mice; format: in vivo; conditions: after injection of A
Excerpt: (§3) The mice bearing grafted tumors are anesthetized by the i.p. injection of sodium pentobarbital 1/5 and immobilized under a scintillation camera (Gammatome II, CGR) equipped with a pinhole 3-360 collimator, sensitivity 3.2 10^-4.

[6] = system: A 431 (tumor of the vulva); assay: as above; format: in vivo; conditions: after injection of A
Excerpt: as §3

[7] = system: human and murine melanomas; assay: Scintillation imaging in human and murine melanoma models (B16, B16 pulmonary metastases, Beu, Dau, FOSS(ORIS)); format: in vivo, human; mouse
Excerpt: The mice bearing grafted tumors are anesthetized by the i.p. injection of sodium pentobarbital 1/5 and immobilized under a scintillation camera (Gammatome II, CGR) equipped with a pinhole 3-360 collimator, sensitivity 3.2 10^-4. […] C57 BL6 bearing pulmonary metastases of B16 melanoma.

[8] = system: 6 weeks old male nu/nu SSCUP nude mice; assay: LD50 determination, i.v. (Karber and Behrens); conditions: mouse, in vivo, iv
Excerpt: as §1
(§4) 6 weeks old male nu/nu SSCUP nude mice, […]

[9] = LD50 determination, i.v. (Karber and Behrens); conditions: mouse, in vivo, iv; remark: listed apart in the source
Excerpt: as §1, §4

With `CCNCCNC(=O)c1ccc(I)cc1` [Derivative B, N-(2-ethylaminoethyl) 4-iodo benzamide] as the molecule, how does the “visualization of pulmonary colonies” value [1] read?
Its value is “readily visualized”.

What about the “intratumoral concentrations compared with A” value ([2]; 4 to 6 h, Dau) of the same molecule?
The value was “slightly higher”.

And the brain/blood ratio ([2]; 1 h)?
The brain/blood ratio was 1,44 ± 0,069.

What about the eye/blood ratio ([2]; 1 h) of the same molecule?
The eye/blood ratio was 0,57 ± 0,011.

What about the intestine/blood ratio ([2]; 1 h) of the same molecule?
The intestine/blood ratio was 3,44 ± 0,231.

And the kidney/blood ratio ([2]; 1 h)?
Its kidney/blood ratio is 9,10 ± 0,286.

And the liver/blood ratio ([2]; 1 h)?
Its liver/blood ratio is 5,56 ± 0,225.

What about the lungs/blood ratio ([2]; 1 h) of the same molecule?
Its lungs/blood ratio is 6 ± 0,353.

What about the muscle/blood ratio ([2]; 1 h) of the same molecule?
Its muscle/blood ratio is 1,17 ± 0,040.

And the pancreas/blood ratio ([2]; 1 h)?
The pancreas/blood ratio was 3,20 ± 0,099.

What about the plasma/blood ratio ([2]; 1 h) of the same molecule?
Its plasma/blood ratio is 0,80 ± 0,017.

And the spleen/blood ratio ([2]; 1 h)?
The spleen/blood ratio was 2,84 ± 0,091.

And the stomach/blood ratio ([2]; 1 h)?
The stomach/blood ratio was 2,66 ± 0,101.

And the submaxillary glands/blood ratio ([2]; 1 h)?
Its submaxillary glands/blood ratio is 4,82 ± 0,285.

What about the tumor/blood ratio ([2]; 1 h) of the same molecule?
Its tumor/blood ratio is 1,33 ± 0,015.

And the brain/blood ratio ([2]; 2 h)?
Its brain/blood ratio is 1,43 ± 0,261.

And the eye/blood ratio ([2]; 2 h)?
The eye/blood ratio was 0,55 ± 0,052.

What about the intestine/blood ratio ([2]; 2 h) of the same molecule?
Its intestine/blood ratio is 2,87 ± 0,34.

And the kidney/blood ratio ([2]; 2 h)?
The kidney/blood ratio was 7,00 ± 1,03.

What about the liver/blood ratio ([2]; 2 h) of the same molecule?
The liver/blood ratio was 3,62 ± 0,68.

And the lungs/blood ratio ([2]; 2 h)?
Its lungs/blood ratio is 6,33 ± 1,166.

What about the muscle/blood ratio ([2]; 2 h) of the same molecule?
The muscle/blood ratio was 0,98 ± 0,182.

What about the pancreas/blood ratio ([2]; 2 h) of the same molecule?
The pancreas/blood ratio was 2,42 ± 0,36.

What about the plasma/blood ratio ([2]; 2 h) of the same molecule?
The plasma/blood ratio was 0,89 ± 0,068.

And the spleen/blood ratio ([2]; 2 h)?
Its spleen/blood ratio is 2,31 ± 0,36.

What about the stomach/blood ratio ([2]; 2 h) of the same molecule?
The stomach/blood ratio was 3,40 ± 0,694.

What about the submaxillary glands/blood ratio ([2]; 2 h) of the same molecule?
Its submaxillary glands/blood ratio is 4,48 ± 0,220.

What about the tumor/blood ratio ([2]; 2 h) of the same molecule?
The tumor/blood ratio was 1,39 ± 0,103.

And the brain/blood ratio ([2]; 4 h)?
Its brain/blood ratio is 2,21 ± 0,304.

What about the eye/blood ratio ([2]; 4 h) of the same molecule?
Its eye/blood ratio is 0,71 ± 0,056.

What about the intestine/blood ratio ([2]; 4 h) of the same molecule?
The intestine/blood ratio was 4,08 ± 0,599.

What about the kidney/blood ratio ([2]; 4 h) of the same molecule?
The kidney/blood ratio was 8,03 ± 0,813.

What about the liver/blood ratio ([2]; 4 h) of the same molecule?
Its liver/blood ratio is 5,21 ± 0,519.

What about the lungs/blood ratio ([2]; 4 h) of the same molecule?
The lungs/blood ratio was 8,77 ± 0,838.

What about the muscle/blood ratio ([2]; 4 h) of the same molecule?
Its muscle/blood ratio is 1,24 ± 0,153.

And the pancreas/blood ratio ([2]; 4 h)?
Its pancreas/blood ratio is 2,70 ± 0,300.

And the plasma/blood ratio ([2]; 4 h)?
The plasma/blood ratio was 0,94 ± 0,058.

What about the spleen/blood ratio ([2]; 4 h) of the same molecule?
The spleen/blood ratio was 2,07 ± 0,256.

What about the stomach/blood ratio ([2]; 4 h) of the same molecule?
The stomach/blood ratio was 4,34 ± 0,924.

What about the submaxillary glands/blood ratio ([2]; 4 h) of the same molecule?
Its submaxillary glands/blood ratio is 5,44 ± 0,297.

What about the tumor/blood ratio ([2]; 4 h) of the same molecule?
Its tumor/blood ratio is 2,68 ± 0,757.

And the brain/blood ratio ([2]; 6 h)?
Its brain/blood ratio is 0,44 ± 0,060.

What about the eye/blood ratio ([2]; 6 h) of the same molecule?
The eye/blood ratio was 0,36 ± 0,023.

What about the intestine/blood ratio ([2]; 6 h) of the same molecule?
The intestine/blood ratio was 1,97 ± 0,112.

What about the kidney/blood ratio ([2]; 6 h) of the same molecule?
The kidney/blood ratio was 2,01 ± 0,252.

And the liver/blood ratio ([2]; 6 h)?
The liver/blood ratio was 1,43 ± 0,439.

And the lungs/blood ratio ([2]; 6 h)?
Its lungs/blood ratio is 1,82 ± 0,187.

What about the muscle/blood ratio ([2]; 6 h) of the same molecule?
The muscle/blood ratio was 0,24 ± 0,056.

What about the pancreas/blood ratio ([2]; 6 h) of the same molecule?
Its pancreas/blood ratio is 0,76 ± 0,050.

And the plasma/blood ratio ([2]; 6 h)?
Its plasma/blood ratio is 1,16 ± 0,016.

What about the spleen/blood ratio ([2]; 6 h) of the same molecule?
The spleen/blood ratio was 0,62 ± 0,045.

And the stomach/blood ratio ([2]; 6 h)?
The stomach/blood ratio was 3,78 ± 0,400.

What about the submaxillary glands/blood ratio ([2]; 6 h) of the same molecule?
Its submaxillary glands/blood ratio is 5,16 ± 0,853.

What about the tumor/blood ratio ([2]; 6 h) of the same molecule?
The tumor/blood ratio was 0,65 ± 0,025.

And the brain/blood ratio ([2]; 8 h)?
The brain/blood ratio was 1,31 ± 0,180.

And the eye/blood ratio ([2]; 8 h)?
The eye/blood ratio was 0,60 ± 0,040.

What about the intestine/blood ratio ([2]; 8 h) of the same molecule?
The intestine/blood ratio was 3,30 ± 0,269.

What about the kidney/blood ratio ([2]; 8 h) of the same molecule?
Its kidney/blood ratio is 3,72 ± 0,573.

And the liver/blood ratio ([2]; 8 h)?
The liver/blood ratio was 6,03 ± 0,678.

What about the lungs/blood ratio ([2]; 8 h) of the same molecule?
Its lungs/blood ratio is 3,69 ± 0,585.

What about the muscle/blood ratio ([2]; 8 h) of the same molecule?
Its muscle/blood ratio is 0,74 ± 0,216.

And the pancreas/blood ratio ([2]; 8 h)?
The pancreas/blood ratio was 1,22 ± 0,151.

And the plasma/blood ratio ([2]; 8 h)?
Its plasma/blood ratio is 0,19 ± 0,020.

And the spleen/blood ratio ([2]; 8 h)?
Its spleen/blood ratio is 1,28 ± 0,158.

What about the stomach/blood ratio ([2]; 8 h) of the same molecule?
Its stomach/blood ratio is 5,35 ± 0,355.

And the submaxillary glands/blood ratio ([2]; 8 h)?
The submaxillary glands/blood ratio was 3,65 ± 0,266.

What about the tumor/blood ratio ([2]; 8 h) of the same molecule?
Its tumor/blood ratio is 1,17 ± 0,314.

And the brain/blood ratio ([2]; 12 h)?
Its brain/blood ratio is 0,74 ± 0,072.

What about the eye/blood ratio ([2]; 12 h) of the same molecule?
Its eye/blood ratio is 0,88 ± 0,081.

And the intestine/blood ratio ([2]; 12 h)?
Its intestine/blood ratio is 3,20 ± 0,502.

And the kidney/blood ratio ([2]; 12 h)?
Its kidney/blood ratio is 5,46 ± 0,217.

And the liver/blood ratio ([2]; 12 h)?
Its liver/blood ratio is 13,34 ± 0,462.

And the lungs/blood ratio ([2]; 12 h)?
The lungs/blood ratio was 3,04 ± 0,401.

What about the muscle/blood ratio ([2]; 12 h) of the same molecule?
The muscle/blood ratio was 0,45 ± 0,111.

And the pancreas/blood ratio ([2]; 12 h)?
The pancreas/blood ratio was 5 ± 0,310.

What about the plasma/blood ratio ([2]; 12 h) of the same molecule?
The plasma/blood ratio was 0,16 ± 0,037.

What about the spleen/blood ratio ([2]; 12 h) of the same molecule?
The spleen/blood ratio was 3,68 ± 0,493.

And the stomach/blood ratio ([2]; 12 h)?
The stomach/blood ratio was 7,03 ± 0,728.

And the submaxillary glands/blood ratio ([2]; 12 h)?
Its submaxillary glands/blood ratio is 2,52 ± 0,236.

What about the tumor/blood ratio ([2]; 12 h) of the same molecule?
The tumor/blood ratio was 1,11 ± 0,059.

What about the brain/blood ratio ([2]; 24 h) of the same molecule?
Its brain/blood ratio is 0,22 ± 0,029.

What about the eye/blood ratio ([2]; 24 h) of the same molecule?
Its eye/blood ratio is 0,94 ± 0,213.

And the intestine/blood ratio ([2]; 24 h)?
Its intestine/blood ratio is 1,16 ± 0,141.

What about the kidney/blood ratio ([2]; 24 h) of the same molecule?
Its kidney/blood ratio is 4,64 ± 0,328.

What about the liver/blood ratio ([2]; 24 h) of the same molecule?
Its liver/blood ratio is 21,88 ± 1,493.

And the lungs/blood ratio ([2]; 24 h)?
The lungs/blood ratio was 1,72 ± 0,182.

What about the muscle/blood ratio ([2]; 24 h) of the same molecule?
The muscle/blood ratio was 0,27 ± 0,043.

And the pancreas/blood ratio ([2]; 24 h)?
The pancreas/blood ratio was 1,40 ± 0,120.

What about the plasma/blood ratio ([2]; 24 h) of the same molecule?
Its plasma/blood ratio is 1,07 ± 0,154.

And the spleen/blood ratio ([2]; 24 h)?
The spleen/blood ratio was 11,17 ± 1,75.

What about the stomach/blood ratio ([2]; 24 h) of the same molecule?
The stomach/blood ratio was 2,28 ± 0,165.

And the submaxillary glands/blood ratio ([2]; 24 h)?
Its submaxillary glands/blood ratio is 1,81 ± 0,169.

And the tumor/blood ratio ([2]; 24 h)?
Its tumor/blood ratio is 0,79 ± 0,092.

And the “tumor/blood ratios compared with A” value ([2]; Dau)?
Its value is “not significantly different”.

What does the source list for `CCN(CC)CCNC(=O)c1ccc(I)cc1` [Derivative A, N-(2-diethylaminoethyl) 4-iodo benzamide]?
LD 0 [3]: 60 mg/kg; LD 100 [3]: 150 mg/kg; LD50 [4]: 90 mg/kg; tumor image [5]: not obtained any image; tumor image [6]: not obtained any image; tumoral definition in scintillation images ([7]; ^125 I and ^123 I-A, i.v.): good tumoral definition; early images ([7]; considerable intraabdominal and pulmonary radioactivity): more difficult to interpret; quality of tumor images ([7]; from 4 h): good quality; intratumoral necrosis zones ([7]; in vivo): not visualized; size of human melanoma imaged ([7]; in vivo): less than 5 mm; LD 0 [8]: 60 mg/kg; LD 100 [8]: 150 mg/kg; LD50 [9]: 90 mg/kg
